Measured values as given in article PMC6271860, “Bioactive 30-Noroleanane Triterpenes from the Pericarps of Akebia trifoliata” (Molecules, 2014).
In brackets after ≈: the same amount, converted by molar mass. Counter-ions that a name gives are not always drawn.

What was measured:
Cytotoxicity, MTT method = conditions: human
Method: (§1) These compounds were also tested for their in vitro cytotoxicity against three human tumor cell lines, A549 (human lung adenocarcinoma), HeLa (human cervical carcinoma) and HepG2 (human liver hepatocellular carcinoma), using the MTT method as described.
(§2) The three tumor cell lines were generously provided by Kunming Institute of Zoology, Chinese Academy of Sciences. The cytotoxic activities of the tested compounds were assayed according to the MTT method by using 96 well plates. Briefly, the cells were cultured in RPMI-1640 medium, supplemented with 10% fetal bovine serum in a humidified atmosphere with 5% CO2 at 37 °C. One hundred μL of adherent cells at the density of 5 × 10^4 cell/mL was seeded into each well of 96-well cell culture plates and incubated in 5% CO2 at 37 °C for 24 h to form a monolayer on the flat bottoms. Then, removed the supernatant per well and subsequently added with 100 μL of fresh medium and 100 μL of medium containing a test compound. The plate was then incubated in 5% CO2at 37 °C. After 72 h, 20 μL of 5 mg/mL MTT in DMSO was added into each well and incubated for 4 h. The supernatant per well was carefully removed and 150 μL of DMSO was added. The plate was then vortex shaken for 15 min to dissolve blue formazan crystals. The optical density (OD) of each well was measured on a Genois microplate reader (Tecan GENios, Männedorf, Switzerland) at the wavelength of 570 nm. All experiments were performed in triplicate and adriamycin was used as a positive control. In each experiment, each of the tumor cell lines was exposed to the test compound at concentrations of 50, 25, 12.5, 6.25, 3.125, 1.5625 µg/mL. The inhibitory rate of cell growth was calculated according to the following formula: Inhibition rate (%) = (ODcontrol− ODtreated)/ODcontrol× 100%. IC50 values were calculated by SPSS 16.0 statistic software. The values were based on three individual experiments and expressed as means ± standard deviation (SD).

[1] = system: A549 (human lung adenocarcinoma); test: Cytotoxicity, MTT method; conditions: read-out: Cytotoxicity IC50, A549 cells, 72 h, mean ± SD (n = 3)
Method: as §1, §2

[2] = system: S. typhimurium (CMCC44102); test: Antibacterial microdilution titre assay (resazurin), MIC; conditions: Salmonella enterica
S. aureus (CMCC26003) = test: as above; conditions: Gram-positive, 37 °C, 5–6 h
[3] = system: S. dysenteriae (CMCC51252); test: as above; format: cell-based; conditions: Shigella dysenteriae
B. subtilis (CMCC63501) = test: as above; conditions: Gram-positive, 37 °C, 5–6 h
E. coli (CMCC44102) = test: as above; conditions: Escherichia coli
MRSA = test: as above; conditions: for MIC: MRSA, Gram-positive, 37 °C, 5–6 h
B. cereus (CMCC63302) = test: as above; conditions: Gram-positive, 37 °C, 5–6 h
[4] = system: HeLa (human cervical carcinoma); test: Cytotoxicity, MTT method; conditions: read-out: Cytotoxicity IC50, HeLa cells, 72 h, mean ± SD (n = 3)
Method: as §1, §2

[5] = Cytotoxicity IC50, A549 cells, mean ± SD (n = 3)
[6] = Cytotoxicity IC50, HeLa cells, mean ± SD (n = 3)
[7] = Staphylococcus aureus, CMCC26003, S. aureus (CMCC26003)
[8] = Bacillus subtilis, CMCC63501, B. subtilis (CMCC63501)
[9] = Bacillus cereus, CMCC63302, B. cereus (CMCC63302)

| Compound | IC50 at 72 h (Cytotoxicity, MTT method) | IC50 at 72 h (Cytotoxicity, MTT method; [5]) | IC50 at 72 h (Cytotoxicity, MTT method; [6]) | IC50 [1] | MIC [2] | MIC (S. aureus (CMCC26003); [7]) | MIC [3] | MIC (B. subtilis (CMCC63501); [8]) | MIC (E. coli (CMCC44102)) | MIC (MRSA; Staphylococcus aureus) | MIC (B. cereus (CMCC63302); [9]) | MIC (S. aureus (CMCC26003); S. aureus (CMCC26003)) | MIC (B. subtilis (CMCC63501); B. subtilis (CMCC63501)) | MIC toward MRSA, fold stronger than the reference compound kanamycin (MRSA; MIC compared with kanamycin) | MIC (MRSA) | MIC (B. cereus (CMCC63302); B. cereus (CMCC63302)) | IC50 [4] |
| --- | --- | --- | --- | --- | --- | --- | --- | --- | --- | --- | --- | --- | --- | --- | --- | --- | --- |
| C=C1CC[C@]2(C(=O)O)CC[C@]3(C)C(=CCC4[C@@]5(C)C[C@@H](O)[C@H](O)C(C)(C)C5CC[C@]43C)C2C1 (stereo partly drawn) [Compound 4, 2α,3β-dihydroxy-30-noroleana-12,20(29)-dien-28-oic acid] | 14.3 ± 0.49 µM | 8.8 µM | 16.33 ± 0.12 µM | 8.77 ± 0.59 µM | > 200 µg/mL | 200 µg/mL (≈ 438 µM) | > 200 µg/mL | 25 µg/mL (≈ 54.7 µM) | > 200 µg/mL | 200 µg/mL (≈ 438 µM) | 50 µg/mL (≈ 109 µM) | – | – | – | – | – | – |
| CC1(O)CCC2(C(=O)O)CCC3(C)C(=CCC4C5(C)CC(O)C(O)C(C)(C)C5CCC43C)C2C1 (stereo not drawn) [Compound 1, 2α,3β,20α-trihydroxy-30-norolean-12-en-28-oic acid] | > 100 µM | > 100 µM | > 100 µM | – | > 200 µg/mL | > 200 µg/mL | > 200 µg/mL | > 200 µg/mL | > 200 µg/mL | > 200 µg/mL | > 200 µg/mL | – | – | – | – | – | – |
| C=C1CC[C@]2(C(=O)O)CC[C@]3(C)C(=CCC4[C@@]5(C)CC[C@H](O)C(C)(C)C5CC[C@]43C)C2C1 (stereo partly drawn) [Compound 3, 3β-akebonoic acid] | 52.9 ± 5.28 µM | 49.5 ± 8.64 µM | 28.6 ± 7.41 µM | – | > 200 µg/mL | 12.5 to 25 µg/mL (≈ 28.4 to 56.7 µM) | > 200 µg/mL | 12.5 to 25 µg/mL (≈ 28.4 to 56.7 µM) | > 200 µg/mL | 12.5 to 25 µg/mL (≈ 28.4 to 56.7 µM) | 12.5 to 25 µg/mL (≈ 28.4 to 56.7 µM) | 25 µg/mL (≈ 56.7 µM) | 12.5 µg/mL (≈ 28.4 µM) | about five-fold | 25 µg/mL (≈ 56.7 µM) | 25 µg/mL (≈ 56.7 µM) | – |
| NC[C@H]1O[C@H](O[C@H]2[C@H](O)[C@@H](O[C@H]3O[C@H](CO)[C@@H](O)[C@H](N)[C@H]3O)[C@H](N)C[C@@H]2N)[C@H](O)[C@@H](O)[C@@H]1O [K, kanamycin sulfate, reference compound] | – | – | – | – | 3.9 µg/mL | 1.9 µg/mL | 3.9 µg/mL | 3.9 µg/mL | 3.9 µg/mL | 125 µg/mL | 3.9 µg/mL | – | – | – | – | – | – |
| C=C1CCC2(C(=O)O)CCC3(C)C(=CCC4C5(C)CC(O)C(O)C(C)(C=O)C5CCC43C)C2C1 (stereo not drawn) [Compound 2, 2α,3β-dihydroxy-23-oxo-30-norolean-12,20(29)-dien-28-oic acid] | > 100 µM | > 100 µM | > 100 µM | – | > 200 µg/mL | > 200 µg/mL | > 200 µg/mL | > 200 µg/mL | > 200 µg/mL | > 200 µg/mL | > 200 µg/mL | – | – | – | – | – | – |
| C=C1CC[C@]2(C(=O)O)CC[C@]3(C)C(=CCC4[C@@]5(C)CC[C@@H](O)[C@](C)(CO)C5CC[C@]43C)C2C1 (stereo partly drawn) [Compound 6, quinatic acid] | > 100 µM | > 100 µM | > 100 µM | – | > 200 µg/mL | > 200 µg/mL | > 200 µg/mL | 12.5 µg/mL (≈ 27.4 µM) | > 200 µg/mL | > 200 µg/mL | 50 µg/mL (≈ 109 µM) | – | – | – | – | – | – |
| CC1=C(C(=O)O)N2C(=O)[C@@H](NC(=O)[C@H](N)C3=CCC=CC3)[C@H]2SC1 [C, cefradine, reference compound] | – | – | – | – | 12.5 µg/mL (≈ 35.8 µM) | 50 µg/mL (≈ 143 µM) | 12.5 µg/mL (≈ 35.8 µM) | 200 µg/mL (≈ 572 µM) | 12.5 µg/mL (≈ 35.8 µM) | > 200 µg/mL | 200 µg/mL (≈ 572 µM) | – | – | – | – | – | – |
| C=C1CC[C@]2(C(=O)O)CC[C@]3(C)C(=CCC4[C@@]5(C)CC[C@@H](O)C(C)(C)C5CC[C@]43C)C2C1 (stereo partly drawn) [Compound 5, 3α-akebonoic acid] | 10.4 ± 1.17 µM | 10.6 ± 0.69 µM | 5.6 µM | – | > 200 µg/mL | > 200 µg/mL | > 200 µg/mL | 50 µg/mL (≈ 113 µM) | > 200 µg/mL | > 200 µg/mL | 25 µg/mL (≈ 56.7 µM) | – | – | – | – | – | 5.61 µM |
